Laboratory results published in ChEMBL document CHEMBL1144210, “Synthesis of all-trans anandamide: a substrate for fatty acid amide hydrolase with dual effects on rabbit platelet activation” (Bioorg Med Chem, 2008).
Active and inactive are the calls of the source. No cut-off for these calls is given here.

Columns and labels:
[1] = test system: Platelet; assay: Inhibition of PAF-induced platelet aggregation in New Zealand white rabbit ear vein plasma; type: functional, cell-based; conditions: Oryctolagus cuniculus
[2] = species on record: Oryctolagus cuniculus; assay: Inhibition of FAAH in New Zealand white rabbit ear vein platelet assessed as [3H]anandamide hydrolysis at 7.5 uM
[3] = test system: Platelet; assay: Induction of platelet aggregation in New Zealand white rabbit ear vein plasma at 18 uM to 70 uM; type: functional, cell-based; conditions: Oryctolagus cuniculus
[4] = test system: Platelet; assay: Induction of platelet aggregation in New Zealand white rabbit ear vein plasma in presence of PMSF; type: functional, Oryctolagus cuniculus
[5] = test system: Platelet; assay: Induction of platelet aggregation in New Zealand white rabbit ear vein plasma at 100 uM to 1000 uM; type: functional, cell-based; conditions: Oryctolagus cuniculus
[6] = test system: Platelet; assay: Induction of in New Zealand white rabbit ear vein plasma in presence of URB597; type: functional, cell-based; conditions: Oryctolagus cuniculus
[7] = species on record: Oryctolagus cuniculus; assay: Inhibition of FAAH in New Zealand white rabbit ear vein platelets assessed as [3H]anandamide hydrolysis at 1.5 uM
[8] = test system: Platelet; assay: Induction of platelet aggregation in New Zealand white rabbit ear vein plasma assessed as LDH activity at 0.36 mM; type: functional, cell-based; conditions: Oryctolagus cuniculus
[9] = test system: Platelet; assay: Induction of platelet aggregation in New Zealand white rabbit ear vein plasma in presence of aspirin; type: functional, cell-based; conditions: Oryctolagus cuniculus
[10] = test system: Platelet; assay: Induction of platelet aggregation in New Zealand white rabbit ear vein plasma in presence of indomethacin; type: functional, cell-based; conditions: Oryctolagus cuniculus

Compound | IC50 [1] [µM] | Activity [2] | Activity [3] | inhibition (INH) [4] [%] | Activity [5] | Activity [6] | Activity [7] | Activity [8] | Activity [9] | Activity [10]
CCCCC/C=C/C/C=C/C/C=C/C/C=C/CCCC(=O)NCCO | 4.7 | Active | Dose-dependent effect | 20 | Dose-dependent effect | inactive | Active | Active | Active | Active
CCCCC/C=C\C/C=C\C/C=C\C/C=C\CCCC(=O)NCCO | – | Active | – | – | – | – | Active | Dose-dependent effect | – | –
